# In PubChem BioAssay (NCI):
# “And” between values parts separate entries of the source, which are not always exact repeats. Identical values can stand only once.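 Each compound was tested at five concentrations against cells in 96-well plates for 48 hours. GI50 = concentration required for 50% inhibition of growth. TGI marks complete inhibition of growth.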
# Assays:
# Assay in all cases: growth of human tumour cells (NCI), 48 h
# HOP-62 NSCLC = system: HOP-62 NSCLC
# MDA-MB-231 breast = system: MDA-MB-231 breast
# A498 renal = system: A498 renal
# MOLT-4 leukemia = system: MOLT-4 leukemia
# ACHN renal = system: ACHN renal
# SK-OV-3 ovarian = system: SK-OV-3 ovarian
# UACC-62 melanoma = system: UACC-62 melanoma
# BT-549 breast = system: BT-549 breast
# HT29 colon = system: HT29 colon
# HOP-92 NSCLC = system: HOP-92 NSCLC
Structure (SMILES),GI50 (HOP-62 NSCLC),TGI (HOP-62 NSCLC),GI50 (MDA-MB-231 breast),TGI (MDA-MB-231 breast),GI50 (A498 renal),TGI (A498 renal),GI50 (MOLT-4 leukemia),TGI (MOLT-4 leukemia),GI50 (ACHN renal),TGI (ACHN renal),GI50 (SK-OV-3 ovarian),TGI (SK-OV-3 ovarian),GI50 (UACC-62 melanoma),TGI (UACC-62 melanoma),GI50 (BT-549 breast),TGI (BT-549 breast),GI50 (HT29 colon),TGI (HT29 colon),GI50 (HOP-92 NSCLC),TGI (HOP-92 NSCLC)
CC(=O)Oc1ccc(OC(C)=O)c2ccccc12,12600 nM,25300 nM,1170 nM,2480 nM,19200 nM,48400 nM,2460 nM,8380 nM,6370 nM,19200 nM,14100 nM,27100 nM,6940 nM,19900 nM,13500 nM,26600 nM,34600 nM,> 100000 nM,1490 nM,3050 nM
COc1cc(-c2cc(-c3ccc(N(C)C)cc3)nc(N3CCOCC3)c2C#N)cc(OC)c1OC,921 nM,10600 nM,463 nM,> 33500 nM,768 nM,23700 nM,1380 nM,> 100000 nM,1020 nM,> 100000 nM,1620 nM,> 100000 nM,628 nM,1710 nM,471 nM,> 100000 nM,385 nM,> 36000 nM,1420 nM,> 29900 nM
Cn1c2ccccc2c(=Nc2ccccc2)c2c3ccccc3[nH]c21,1140 nM,2420 nM,1620 nM,3110 nM,1340 nM,3080 nM,320 nM,11700 nM,755 nM,1990 nM,2160 nM,5080 nM,696 nM,2010 nM,3150 nM,7130 nM,2360 nM,> 100000 nM,942 nM,2390 nM
COc1ccccc1/C=C\c1cnnc2ccccc12,–,> 10000 nM,–,> 10000 nM,–,> 10000 nM,–,> 10000 nM,–,> 10000 nM,–,> 10000 nM,–,> 10000 nM,–,> 10000 nM,–,> 10000 nM,–,7610 nM
Cn1nc(C(F)(F)F)c(-c2ccc(Cl)c(C(F)(F)F)c2)c1-c1ccc(OCc2ccc(Cl)cc2)cc1O,1580 nM,6040 nM,1590 nM,5410 nM,1050 nM,4100 nM,1810 nM,6200 nM,1610 nM,5030 nM,1420 nM,4320 nM,1580 nM,5800 nM,1540 nM,6510 nM,1620 nM,5420 nM,1110 nM,3020 nM
Cc1ccc2nc3c(C)c(Cl)c(=O)cc-3sc2c1,–,69400 nM,–,15800 nM,–,> 100000 nM,–,41300 nM,–,87300 nM,–,> 100000 nM,–,17400 nM,–,> 100000 nM,–,> 100000 nM,–,> 92300 nM
CC(CN=C(CC(=O)c1ccc(Br)cc1)c1ccccc1)N=C(CC(=O)c1ccc(Br)cc1)c1ccccc1 (configuration not stated),> 100000 nM,> 100000 nM,> 100000 nM,> 100000 nM,38800 nM,> 100000 nM,7950 nM,> 100000 nM,48000 nM,> 100000 nM,9050 nM,> 100000 nM,32000 nM,> 100000 nM,42100 nM,> 100000 nM,7700 nM,> 100000 nM,11500 nM,78800 nM
COc1ccc(-c2ccc(/C=C/C(=O)NO)cc2)cc1,1310 nM,3110 nM,1170 nM,13400 nM,1400 nM,3760 nM,375 nM,–,1070 nM,4480 nM,1180 nM,3210 nM,1150 nM,3430 nM,1530 nM,25900 nM,3560 nM,> 100000 nM,1190 nM,4980 nM
CN(C)CCCNc1nn2c(=O)c3ccccc3nc2c2ccccc12,8260 nM,21500 nM,8020 nM,28100 nM,9060 nM,21400 nM,2470 nM,7160 nM,3750 nM,15000 nM,5430 nM,22800 nM,–,–,10900 nM,45700 nM,3460 nM,14700 nM,4130 nM,59300 nM
C[C@]12O[C@H](C[C@]1(O)CO)n1c3ccccc3c3c4c(c5c6ccccc6n2c5c31)CNC4=O,49.9 nM and 66.4 nM,1250 nM and 1070 nM,126 nM and 151 nM,2820 nM and 3000 nM,13 nM and 14.8 nM,114 nM and 94.3 nM,38.6 nM and 45.7 nM,451 nM and 1180 nM,22.2 nM and 16.8 nM,> 6500 nM and 3130 nM,18.3 nM and 21.4 nM,146 nM and 521 nM,36.6 nM and 40.2 nM,1300 nM and 1150 nM,203 nM and 288 nM,1450 nM and 1810 nM,166 nM and 138 nM,3350 nM and 1380 nM,42.2 nM and 174 nM,650 nM and 1160 nM
Cc1ccc(Cl)cc1Nc1nc(C(F)(F)F)ccc1C(=O)Nc1cccc(C(F)(F)F)c1,2690 nM,10300 nM,2290 nM,9630 nM,2970 nM,8590 nM,2770 nM,10000 nM,2950 nM,12800 nM,1740 nM,5470 nM,5220 nM,17100 nM,3560 nM,13300 nM,2820 nM,12800 nM,2200 nM,8690 nM
CC(C)C[C@H](NC(=O)[C@H](CCc1ccccc1)NC(=O)CN1CCOCC1)C(=O)N[C@@H](Cc1ccccc1)C(=O)N[C@@H](CC(C)C)C(=O)[C@@]1(C)CO1,< 13.9 nM,< 22.9 nM,< 12.8 nM,63.5 nM,22.7 nM,98.7 nM,< 10 nM,> 100000 nM,36.6 nM,2660 nM,25.3 nM,282 nM,33 nM,114 nM,< 10 nM,24.2 nM,< 10 nM,47.1 nM,23.6 nM,81.2 nM
O=C(NCc1cccnc1)/C(=C\c1ccc(Br)cc1)S(=O)(=O)c1ccccc1,1640 nM,3630 nM,705 nM,2100 nM,1360 nM,2710 nM,419 nM,2950 nM,719 nM,1970 nM,2700 nM,5970 nM,1140 nM,2530 nM,913 nM,2210 nM,514 nM,3920 nM,745 nM,2230 nM
